From patent publication US20140135390A1, “Modified Platinum Compounds” (priority 2011, published 2014)

Columns and labels:
[1] = tested on: murine breast cancer cells EMT-6; experiment: In vitro cell viability of EMT-6 cells after 48 hours incubation, viable cells counted with a hemocytometer; format: cell-based; conditions: 1 μM, 50 μM and 100 μM
Description: A murine breast cancer cells EMT-6 (0.5*10^6 cells/plate) were plated and grown in Dulbecco's Modified Eagle Medium (DMEM) supplemented with 10% FBS, 2% L-Glutamine Solution (200 mM), 2% Pen-Strep Solution (Biological Industries), and […] D-Glucose under regular growth conditions: 5% CO2, and 37.6° C.
After the incubation time, cells were washed with PBS (3 times), harvested using Trypsin-EDTA solution (Biological Industries), and the number of viable cells was counted under microscope using a microscope counting chamber (Hemocytometer).

[2] = tested on: treated patients; conditions: dose limiting toxicity; cited from earlier work

N.N.[Cl][Pt][Cl] [Cisplatin, cis-diamminedichloroplatinum(II)]
toxicity to the cells / effect on cell number (FIG. 1) [1]: dose-dependent reduction in the cells
sensory neuropathy, share of treated patients [2]: more than 20%
